Dmax and DC50 data for eight compounds are collected here from patent US20220370416A1, “COMPOUNDS AND METHODS FOR TARGETED DEGRADATION OF KRAS” (Arvinas Operations, Inc., priority 2020, published 2022).

In test [1] the target is T1, HiBit-KRAS^G12C (Homo sapiens, UniProt P01116, G12C). Description: HiBit degradation assay in SW1573 HiBit-KRas^G12C cells. Format: cell-based. Also noted: expressed in transfected cells; host or cells: SW1573 (clone E6), modified pcDNA3.1 vector, TK promoter. To be noted: 24 hours. In outline: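 SW1573 cells stably expressing N-terminally HiBit-tagged KRAS G12C, under the TK promoter, were treated 24 h at 37 °C with 10 μM to 20 nM compound in 0.1% or 0.5% DMSO. Residual HiBit luminescence normalised to DMSO and fitted with a 4-parameter model for DC50 and Dmax. Points with ≥50% viability loss (alamar blue) excluded.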
T1 sequence (P01116 1-186 isoform P01116-2 G12C limits assumed): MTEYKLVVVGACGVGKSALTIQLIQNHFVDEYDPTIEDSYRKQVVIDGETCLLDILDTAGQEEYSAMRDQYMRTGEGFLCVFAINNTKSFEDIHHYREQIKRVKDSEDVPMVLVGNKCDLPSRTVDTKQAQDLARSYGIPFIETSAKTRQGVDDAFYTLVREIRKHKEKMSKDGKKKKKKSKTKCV
(The HiBiT peptide binds its large partner to form an active luciferase.)

Test [2] concerns the target T1, HiBit-KRAS^G12C. Description: HiBit degradation assay in MiaPaCa-2 HiBit-KRas^G12C cells. Type of test: cell-based. Conditions: 24 hours; for Dmax: maximum degradation. In outline: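 MiaPaCa-2 cells with CRISPR N-terminal HiBit knock-in on one endogenous KRAS^G12C allele, treated 24 hours at 37° C with compound titrated 10 μM to 20 nM (0.1% or 0.5% DMSO). Lytic HiBit luminescence normalized to DMSO, 4-parameter fit giving DC50 and Dmax; points cytotoxic to […] cells by alamar blue excluded.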

Setting [3] is: SW1573, read-out: KRas^G12C-HiBit (SW1573; 0.1% DMSO) Dmax**, SW1573 HiBit-KRas^G12C, 0.1% DMSO.
Setting [4] is: SW1573 HiBit-KRas^G12C, 0.1% DMSO, read-out: KRas^G12C-HIBit (SW1573; 0.1% DMSO) DC50*.
Setting [5] is: read-out: KRas^G12C-HiBiT (MiaPaCa; 0.1% DMSO) IC50, MiaPaCa-2 HiBit-KRas^G12C cells, 0.1% DMSO.
[6] abbreviates: SW1573, SW1573 HiBit-KRas^G12C, 0.5% DMSO, read-out: KRas^G12C-HiBiT (SW1573; 0.5% DMSO) Dmax**.
The mark [7] stands for this setting: read-out: KRas^G12C-HiBiT (SW1573; 0.5% DMSO) IC50***, SW1573 HiBit-KRas^G12C, 0.5% DMSO.
Where [8] appears, read: MIA PaCa-2, MiaPaCa-2 HiBit-KRas^G12C cells, 0.5% DMSO, read-out: KRas^G12C-HiBiT (MiaPaCa; 0.5% DMSO) DMax.
Setting [9] is: read-out: KRas^G12C-HiBiT (MiaPaCa; 0.5% DMSO) IC50, MiaPaCa-2 HiBit-KRas^G12C cells, 0.5% DMSO.

As to `C=CC(=O)N1CCN(c2nc(O[C@H](C)CN3CCN(C4CN(CC(=O)N[C@H](C(=O)N5C[C@H](O)C[C@H]5C(=O)N[C@@H](C)c5ccc(-c6scnc6C)cc5)C(C)(C)C)C4)CC3)nc3c(F)c(-c4cc(O)cc5ccccc45)c(Cl)cc23)CC1` [Compound 40, (2S,4R)-1-[(2S)-2-[2-(3-{4-[(2R)-2-{[6-chloro-8-fluoro-7-(3-hydroxynaphthalen-1-yl)-4-[4-(prop-2-enoyl)piperazin-1-yl]quinazolin-2-yl]oxy}propyl]piperazin-1-yl}azetidin-1-yl)acetamido]-3,3-dimethylbutanoyl]-4-hydroxy-N-[(1S)-1-[4-(4-methyl-1,3-thiazol-5-yl)phenyl]ethyl]pyrrolidine-2-carboxamide], the Dmax in test [1] (SW1573, read-out: KRas^G12C-HiBiT (SW1573; 0.5% DMSO) Dmax**, SW1573 HiBit-KRas^G12C, 0.5% DMSO) is 35 to 70%; in test [1] (setting [3]) it was 35 to 70%; in test [2] (MIA PaCa-2, read-out: KRas^G12C-HiBiT (MiaPaCa; 0.1% DMSO) DMax, MiaPaCa-2 HiBit-KRas^G12C cells, 0.1% DMSO), < 35%; in test [2] (MIA PaCa-2, read-out: KRas^G12C-HiBiT (MiaPaCa; 0.5% DMSO) DMax, MiaPaCa-2 HiBit-KRas^G12C cells, 0.5% DMSO), < 35%. Also, the DC50 in test [1] (setting [4]) was > 1000 nM; in test [2] (setting [5]) it was 100 to 1000 nM.
As for `C=C(F)C(=O)N1CCN(c2nc(OCCN3CCC(COCC(=O)N[C@H](C(=O)N4C[C@H](O)C[C@H]4C(=O)N[C@@H](C)c4ccc(-c5ccnn5C)cc4)C(C)(C)C)CC3)nc3c(F)c(-c4cc(O)cc5ccccc45)c(Cl)cc23)C[C@@H]1CC#N` (atropisomer, axis not shown) [Compound 129, (2S,4R)-1-[(2S)-2-[2-({1-[2-({6-chloro-4-[(3S)-3-(cyanomethyl)-4-(2-fluoroprop-2-enoyl)piperazin-1-yl]-8-fluoro-7-(3-hydroxynaphthalen-1-yl)quinazolin-2-yl}oxy)ethyl]piperidin-4-yl}methoxy)acetamido]-3,3-dimethylbutanoyl]-4-hydroxy-N-[(1S)-1-[4-(1-methyl-1H-pyrazol-5-yl)phenyl]ethyl]pyrrolidine-2-carboxamide], the Dmax in test [1] (setting [6]) and in test [2] (setting [8]) was > 70% each time. Moreover, the DC50 in test [1] (setting [7]) and in test [2] (setting [9]) was 100 to 1000 nM in each case.
Turning to `C=CC(=O)N1CCN(c2nc(OCCN3CCC4(CC3)CN(c3cc([C@@H](C(=O)N5C[C@H](O)C[C@H]5C(=O)N[C@@H](C)c5ccc(-c6scnc6C)cc5)C(C)C)on3)C4)nc3c(F)c(-c4cc(O)cc5ccccc45)c(Cl)cc23)C[C@@H]1CC#N` [Compound 137, (2S,4R)-1-[(2S)-2-(3-{7-[2-({6-chloro-4-[(3S)-3-(cyanomethyl)-4-(prop-2-enoyl)piperazin-1-yl]-8-fluoro-7-(3-hydroxynaphthalen-1-yl)quinazolin-2-yl}oxy)ethyl]-2,7-diazaspiro[3.5]nonan-2-yl}-1,2-oxazol-5-yl)-3-methylbutanoyl]-4-hydroxy-N-[(1S)-1-[4-(4-methyl-1,3-thiazol-5-yl)phenyl]ethyl]pyrrolidine-2-carboxamide], the Dmax in test [1] (setting [6]) was < 35%. The figures for the DC50 in test [1] (setting [7]) and in test [2] (setting [9]) were 100 to 1000 nM and > 1000 nM, respectively.
For `C=C(F)C(=O)N1CCN(c2nc(OCCN3CCC(F)(COc4cc([C@@H](C(=O)N5C[C@H](O)C[C@H]5C(=O)N[C@@H](C)c5ccc(-c6scnc6C)cc5)C(C)C)on4)CC3)nc3c(F)c(-c4cc(O)cc5ccccc45)c(Cl)cc23)C[C@@H]1CC#N` (atropisomer, axis not shown) [Compound 122, (2S,4R)-1-[(2S)-2-[3-({1-[2-({6-chloro-4-[(3S)-3-(cyanomethyl)-4-(2-fluoroprop-2-enoyl)piperazin-1-yl]-8-fluoro-7-(3-hydroxynaphthalen-1-yl)quinazolin-2-yl}oxy)ethyl]-4-fluoropiperidin-4-yl}methoxy)-1,2-oxazol-5-yl]-3-methylbutanoyl]-4-hydroxy-N-[(1S)-1-[4-(4-methyl-1,3-thiazol-5-yl)phenyl]ethyl]pyrrolidine-2-carboxamide], the DC50 in test [1] (setting [7]) and in test [2] (setting [9]) was > 1000 nM in each case.
`C=CC(=O)N1CCN(c2nc(O[C@H](C)CN3CCC(OCCOC4CN(CC(=O)N[C@H](C(=O)N5C[C@H](O)C[C@H]5C(=O)N[C@@H](C)c5ccc(-c6scnc6C)cc5)C(C)(C)C)C4)CC3)nc3c(F)c(-c4cc(O)cc5ccccc45)c(Cl)cc23)CC1` [Compound 53, (2S,4R)-1-[(2S)-2-(2-{3-[2-({1-[(2R)-2-{[6-chloro-8-fluoro-7-(3-hydroxynaphthalen-1-yl)-4-[4-(prop-2-enoyl)piperazin-1-yl]quinazolin-2-yl]oxy}propyl]piperidin-4-yl}oxy)ethoxy]azetidin-1-yl}acetamido)-3,3-dimethylbutanoyl]-4-hydroxy-N-[(1S)-1-[4-(4-methyl-1,3-thiazol-5-yl)phenyl]ethyl]pyrrolidine-2-carboxamide]: the Dmax in test [1] (setting [3]) was < 35%. The DC50 in test [1] (setting [4]) is 100 to 1000 nM; in test [2] (setting [5]) it was > 1000 nM.
Take `C=CC(=O)N1CCN(c2nc(OCCN3CCC(COCC(=O)N[C@H](C(=O)N4C[C@H](O)C[C@H]4C(=O)N[C@@H](C)c4ccc(-c5scnc5C)cc4)C(C)(C)C)CC3)nc3c(F)c(-c4cccc5cccc(C)c45)c(Cl)cc23)C[C@@H]1CC#N` [Compound 135, (2S,4R)-1-[(2S)-2-[2-({1-[2-({6-chloro-4-[(3S)-3-(cyanomethyl)-4-(prop-2-enoyl)piperazin-1-yl]-8-fluoro-7-(8-methylnaphthalen-1-yl)quinazolin-2-yl}oxy)ethyl]-piperidin-4-yl}methoxy)acetamido]-3,3-dimethylbutanoyl]-4-hydroxy-N-[(1S)-1-[4-(4-methyl-1,3-thiazol-5-yl)phenyl]ethyl]pyrrolidine-2-carboxamide]: the Dmax in test [1] (setting [6]) and in test [2] (setting [8]) was 35 to 70% in each case. Further, the DC50 in test [1] (setting [7]) and in test [2] (setting [9]) was 100 to 1000 nM in each case.
As for `C=CC(=O)N1CCN(c2nc(OC[C@@H]3CCCN3CCCCOCC(=O)N[C@H](C(=O)N3C[C@H](O)C[C@H]3C(=O)N[C@@H](C)c3ccc(-c4scnc4C)cc3)C(C)(C)C)nc3c(F)c(-c4cc(O)cc5ccccc45)c(Cl)cc23)C[C@@H]1CC#N` [Compound 100, (2S,4R)-1-[(2S)-2-(2-{4-[(2S)-2-[({6-chloro-4-[(3S)-3-(cyanomethyl)-4-(prop-2-enoyl)piperazin-1-yl]-8-fluoro-7-(3-hydroxynaphthalen-1-yl)quinazolin-2-yl}oxy)methyl]pyrrolidin-1-yl]butoxy}acetamido)-3,3-dimethylbutanoyl]-4-hydroxy-N-[(1S)-1-[4-(4-methyl-1,3-thiazol-5-yl)phenyl]ethyl]pyrrolidine-2-carboxamide], the Dmax in test [1] (setting [6]) and in test [2] (setting [8]) was < 35% throughout. For the same compound, the values for the DC50 in test [1] (setting [7]) and in test [2] (setting [9]) were 100 to 1000 nM and > 1000 nM, respectively.
As to `C=C(F)C(=O)N1CCN(c2nc(OCCN3CCC(C)(COc4cc([C@H](C(=O)N5C[C@H](O)C[C@H]5C(=O)N[C@@H](C)c5ccc(-c6ccnn6C)cc5)C(C)C)on4)CC3)nc3c(F)c(-c4cc(O)cc5ccccc45)c(Cl)cc23)C[C@@H]1CC#N` (atropisomer, axis not shown) [Compound 124, (2S,4R)-1-[(2R)-2-[3-({1-[2-({6-chloro-4-[(3S)-3-(cyanomethyl)-4-(2-fluoroprop-2-enoyl)piperazin-1-yl]-8-fluoro-7-(3-hydroxynaphthalen-1-yl)quinazolin-2-yl}oxy)ethyl]-4-methylpiperidin-4-yl}methoxy)-1,2-oxazol-5-yl]-3-methylbutanoyl]-4-hydroxy-N-[(1S)-1-[4-(1-methyl-1H-pyrazol-5-yl)phenyl]ethyl]pyrrolidine-2-carboxamide], the Dmax in test [1] (setting [6]) and in test [2] (setting [8]) was 35 to 70% each time. In addition, the DC50 in test [1] (setting [7]) and in test [2] (setting [9]) was < 100 nM throughout.
